# Results reported in patent publication US6417202B1, “Pyridylpyrrole compounds useful as interleukin-and TNF antagonists” (Pfizer Inc., priority 1996, dated 2002).
row,melting point,Compound
1,218 to 220 °C,"CC(=O)c1c(-c2ccco2)[nH]c(-c2ccncc2)c1C [Example 69, 3-Acetyl-2-(2-furyl)-4-methyl-5-(4-pyridyl)-1H-pyrrole]"
2,240 to 244 °C,"CC(=O)c1c(-c2ccsc2)[nH]c(-c2ccncc2)c1C [Example 70, 3-Acetyl-4-methyl-5-(4-pyridyl)-2-(3-thienyl)-1H-pyrrole]"
3,169 to 172 °C,"CSc1ccc(-c2[nH]c(-c3ccncc3)c(C)c2C(C)=O)cc1 [Example 71, 3-Acetyl-4-methyl-2-(4-methylthiophenyl)-5-(4-pyridyl)-1H-pyrrole]"
4,178.5 to 179.5 °C,"CC(=O)c1c(-c2ccc(C(F)(F)F)cc2)[nH]c(-c2ccncc2)c1C [Example 73, 3-Acetyl-4-methyl-5-(4-pyridyl)-2-(4-trifluoromethylphenyl)-1H-pyrrole]"
5,249 to 250 °C,"CC(=O)c1c(-c2ccc([S+](C)[O-])cc2)[nH]c(-c2ccncc2)c1C (centres unmarked) [Example 75, 3-Acetyl-4-methyl-2-(4-methylsulfinylphenyl)-5-(4-pyridyl)-1H-pyrrole]"
6,218 to 220 °C,"CC(=O)c1c(N2CCN(c3ccccc3)CC2)[nH]c(-c2ccncc2)c1C [Example 78, 3-Acetyl-4-methyl-2-(4-phenylpiperazin-1-yl)-5-(4-pyridyl)-1H-pyrrole]"
7,95 to 100 °C,"CC(=O)c1c(N2C[C@@H](C)O[C@@H](C)C2)[nH]c(-c2ccncc2)c1C [Example 80, 3-Acetyl-2-(cis-2,6-dimethylmorpholin-4-yl)-4-methyl-5-(4-pyridyl)-1H-pyrrole]"
8,89 to 92 °C,"CC(=O)c1c(N2CCN(c3ccccn3)CC2)[nH]c(-c2ccncc2)c1C [Example 81, 3-Acetyl-4-methyl-5-(4-pyridyl)-2-{4-(2-pyridyl)piperazin-1-yl}-1H-pyrrole]"
9,237 to 239 °C,"Cc1c(-c2ccncc2)[nH]c2c1C(=O)C(C)(C)CC2 [Example 82 (3,5,5-trimethyl), 4-Oxo-2-(4-pyridyl)-3,5,5-trimethyl-4,5,6,7-tetrahydro-1H-indole]"
10,278 to 280 °C,"Cc1c(-c2ccncc2)[nH]c2c1C(=O)CCC2(C)C [Example 82 (3,7,7-trimethyl), 4-Oxo-2-(4-pyridyl)-3,7,7-trimethyl-4,5,6,7-tetrahydro-1H-indole]"
11,187 to 188 °C,"CC(=O)c1c([N+](=O)[O-])[nH]c(-c2ccncc2)c1C [Example 84, 3-Acetyl-4-methyl-2-nitro-5-(4-pyridyl)-1H-pyrrole]"
12,247 to 248 °C,"Cc1c(-c2ccncc2)[nH]c2c1C(=O)CC(C)C2 (centres unmarked) [Example 86, 3,6-Dimethyl-4-oxo-2-(4-pyridyl)-4,5,6,7-tetrahydro-1H-indole]"
13,209 to 210 °C,"Cc1c(-c2ccncc2)[nH]c2c1C(=O)CSC2 [Example 87, 3-Methyl-4-oxo-2-(4-pyridyl)-6-thia-4,5,6,7-tetrahydro-1H-indole]"
14,208 to 209 °C,"CC(=O)c1c(C=O)[nH]c(-c2ccncc2)c1C [Example 88, 3Acetyl-2-formyl-4-methyl-5-(4-pyridyl)-1H-pyrrole]"
15,163 to 165 °C,"CC(=O)c1c(CO)[nH]c(-c2ccncc2)c1C [Example 89, 3-Acetyl-2-hydroxymethyl-4-methyl-5-(4-pyridyl)-1H-pyrrole]"
16,199 to 201 °C,"Cc1c(-c2ccncc2)[nH]c(-c2ccncc2)c1C(=O)CC(C)C [Example 90, 4-Methyl-3-(3-methylbutanoyl)-2,5-di(4-pyridyl)-1H-pyrrole]"
17,202 to 204 °C,"COC(=O)c1c(-c2ccccc2)[nH]c(-c2ccncc2)c1C [Example 91, Methyl 4-Methyl-2-phenyl-5-(4-pyridyl)pyrrole-3-carboxylate]"
